The target in this test is T1, Recombinant human TPH1 (MBP tagged) (Homo sapiens, UniProt P17752).
T1 construct: cloning full length human TPH1 cDNA in to a bacterial pMAL-c5E expression vector; made in house; host or cells: E. coli BL21 (DE3)
T1 sequence (P17752 1-444): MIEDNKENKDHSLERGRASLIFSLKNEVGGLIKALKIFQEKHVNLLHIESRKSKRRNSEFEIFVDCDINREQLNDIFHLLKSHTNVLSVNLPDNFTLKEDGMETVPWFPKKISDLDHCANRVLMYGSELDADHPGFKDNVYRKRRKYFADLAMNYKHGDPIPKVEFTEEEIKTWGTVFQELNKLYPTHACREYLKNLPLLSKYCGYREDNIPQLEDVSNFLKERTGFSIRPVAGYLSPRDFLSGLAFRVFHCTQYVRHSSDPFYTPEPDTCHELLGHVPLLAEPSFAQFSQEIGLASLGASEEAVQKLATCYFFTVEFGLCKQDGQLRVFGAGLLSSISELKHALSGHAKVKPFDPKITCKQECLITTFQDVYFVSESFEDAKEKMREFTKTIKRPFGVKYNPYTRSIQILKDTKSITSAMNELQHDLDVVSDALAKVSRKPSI
The test is described as follows: TPH1 in vitro inhibition assay (kinetic fluorescence). The class given is biochemical. The source says: Recombinant human TPH1 (rTPH1 GenBank™ accession no. NP_004179) was expressed by cloning full length human TPH1 cDNA in to a bacterial pMAL-c5E expression vector to produce maltose-binding protein (MBP) TPH1 fusion proteins. E. coli BL21 (DE3) containing pMAL-c5E-TPH1 was used for protein generation and the recombinant protein was purified utilizing standard column chromatography techniques. The MBP tagged TPH1 (MBP-TPH1) was used directly to screen compounds as described below. Recombinant human TPH2 (rTPH2 GenBank™ accession no. 173353), PheOH (rPheOH GenBank™ accession no. K03020) and TH (rTH GenBank™ accession no. L20679) with an MBP tag were produced similarly.
TPH1 activities were measured in an assay containing 200 mM ammonium sulfate, 7 mM DTT, 50 μg/mL catalase, 25 μM ammonium iron sulfate, 50 mM MES, pH 7.1. Test compounds were diluted in 100% DMSO and added to the assay plate in 1 μL aliquots at 100× final concentration. Fifty microliters of assay buffer containing 30 nM TPH1 enzyme (MBP tagged) were added to the plate wells containing the test compound by the use of an Eppendorf repeater pipette. The reaction was initiated by the addition of 50 μL of assay buffer containing 60 μM tryptophan and 72 μM 6-6-methyltetra-hydropterin (2× final concentration) by the use of a Multidrop (LabSystems). Final reaction conditions were 15 nM TPH1 enzyme, 30 μM tryptophan, 36 μM 6-methyltetra-hydropterin, 200 mM ammonium sulfate, 7 mM DTT, […], 25 μM ferrous ammonium sulfate, 50 mM MES, pH 7.1, with atmospheric oxygen at room temperature. The plate was immediately placed onto an M5 plate reader (Molecular Devices) for kinetic fluorescence measurement using an excitation setting of 300 nm and an emission setting of 335 nm. Fluorescence reads are recorded in kinetic mode for 300 seconds (5 minutes).
Kinetic assay data for compounds at specific concentrations was translated into slopes using the Softmax Pro software on a Spectramax reader, and compound inhibition slopes were compared with wells containing enzyme, substrate and cofactor in the absence of inhibitor (100%), and wells containing substrate and cofactor in the absence of enzyme (0%). DMSO concentration in the assay was 1%. […] IC50's were determined using Graphpad Prism.

Where [1] appears, read: read-out: TPH1 Range (TPH1 inhibition IC50).

In general, IC50 refers to the concentration that gives 50% inhibition.

Like-named read-outs stand apart in the source and are kept apart here. Bounds are passed on as bounds.

With `Cc1ccn(-c2cc(-c3cc(C)c(Cl)c(C)c3)ccc2[C@@H](Oc2cc(N3CCC4(CC3)CN[C@H](C(=O)O)C4)nc(N)n2)C(F)(F)F)n1` [Example 1bh, (S)-8-(2-amino-6-((R)-1-(4′-chloro-3′,5′-dimethyl-3-(3-methyl-1H-pyrazol-1-yl)-[1,1′-biphenyl]-4-yl)-2,2,2-trifluoroethoxy)pyrimidin-4-yl)-2,8-diazaspiro[4.5]decane-3-carboxylic acid], the concentration for half-maximal inhibition (IC50) under setting [1] is below 50 nM.

In the case of `Cc1ccn(-c2cc(-c3cc(Cl)cc(Cl)c3)ccc2[C@@H](Oc2cc(N3CCC4(CC3)CN[C@H](C(=O)O)C4)nc(N)n2)C(F)(F)F)n1` [Example 1bi, (S)-8-(2-amino-6-((R)-1-(3′,5′-dichloro-3-(3-methyl-1H-pyrazol-1-yl)-[1,1′-biphenyl]-4-yl)-2,2,2-trifluoroethoxy)pyrimidin-4-yl)-2,8-diazaspiro[4.5]decane-3-carboxylic acid], the IC50 under setting [1] is below 50 nM.

`Cc1cc(-c2ccc([C@@H](Oc3cc(N4CCC5(CC4)CN[C@H](C(=O)O)C5)nc(N)n3)C(F)(F)F)c(-n3ccc(C)n3)c2)cc(C(C)(C)C)c1` [Example 1bj, (S)-8-(2-amino-6-((R)-1-(3′-(tert-butyl)-5′-methyl-3-(3-methyl-1H-pyrazol-1-yl)-[1,1′-biphenyl]-4-yl)-2,2,2-trifluoroethoxy)pyrimidin-4-yl)-2,8-diazaspiro[4.5]decane-3-carboxylic acid]: the IC50 under setting [1] is 50 to 300 nM.

For the compound `Cc1ccn(-c2cc(-c3cccc(Cl)c3)ccc2[C@@H](Oc2cc(N3CCC4(CC3)CN[C@H](C(=O)O)C4)nc(N)n2)C(F)(F)F)n1` [Example 1bk, (S)-8-(2-amino-6-((R)-1-(3′-chloro-3-(3-methyl-1H-pyrazol-1-yl)-[1,1′-biphenyl]-4-yl)-2,2,2-trifluoroethoxy)pyrimidin-4-yl)-2,8-diazaspiro[4.5]decane-3-carboxylic acid], the IC50 under setting [1] was below 50 nM.

On to `Cc1ccn(-c2cc(-c3ccc(C(F)(F)F)c(Cl)c3)ccc2[C@@H](Oc2cc(N3CCC4(CC3)CN[C@H](C(=O)O)C4)nc(N)n2)C(F)(F)F)n1` [Example 1bl, (S)-8-(2-amino-6-((R)-1-(3′-chloro-3-(3-methyl-1H-pyrazol-1-yl)-4′-(trifluoromethyl)-[1,1′-biphenyl]-4-yl)-2,2,2-trifluoroethoxy)pyrimidin-4-yl)-2,8-diazaspiro[4.5]decane-3-carboxylic acid], for which the IC50 under setting [1] was below 50 nM.

Take `COc1ccc(-c2ccc([C@@H](Oc3cc(N4CCC5(CC4)CN[C@H](C(=O)O)C5)nc(N)n3)C(F)(F)F)c(-n3ccc(C)n3)c2)cc1` [Example 1bm, (S)-8-(2-amino-6-((R)-2,2,2-trifluoro-1-(4′-methoxy-3-(3-methyl-1H-pyrazol-1-yl)-[1,1′-biphenyl]-4-yl)ethoxy)pyrimidin-4-yl)-2,8-diazaspiro[4.5]decane-3-carboxylic acid]: the concentration for half-maximal inhibition (IC50) (TPH1 Range (TPH1 inhibition IC50)) was below 50 nM.

For the compound `CCOc1ccc(-c2ccc([C@@H](Oc3cc(N4CCC5(CC4)CN[C@H](C(=O)O)C5)nc(N)n3)C(F)(F)F)c(-n3ccc(C)n3)c2)cc1F` [Example 1bn, (S)-8-(2-amino-6-((R)-1-(4′-ethoxy-3′-fluoro-3-(3-methyl-1H-pyrazol-1-yl)-[1,1′-biphenyl]-4-yl)-2,2,2-trifluoroethoxy)pyrimidin-4-yl)-2,8-diazaspiro[4.5]decane-3-carboxylic acid], under setting [1], the IC50 is below 50 nM.

As for `Cc1ccn(-c2cc(-c3cc(F)c(F)c(F)c3)ccc2[C@@H](Oc2cc(N3CCC4(CC3)CN[C@H](C(=O)O)C4)nc(N)n2)C(F)(F)F)n1` [Example 1bo, (S)-8-(2-amino-6-((R)-2,2,2-trifluoro-1-(3′,4′,5′-trifluoro-3-(3-methyl-1H-pyrazol-1-yl)-[1,1′-biphenyl]-4-yl)ethoxy)pyrimidin-4-yl)-2,8-diazaspiro[4.5]decane-3-carboxylic acid], the IC50 under setting [1] was 50 to 300 nM.

`Cc1ccn(-c2cc(-c3ccc(C)c(Cl)c3)ccc2[C@@H](Oc2cc(N3CCC4(CC3)CN[C@H](C(=O)O)C4)nc(N)n2)C(F)(F)F)n1` [Example 1bp, (S)-8-(2-amino-6-((R)-1-(3′-chloro-4′-methyl-3-(3-methyl-1H-pyrazol-1-yl)-[1,1′-biphenyl]-4-yl)-2,2,2-trifluoroethoxy)pyrimidin-4-yl)-2,8-diazaspiro[4.5]decane-3-carboxylic acid]: the IC50 under setting [1] is below 50 nM.

Take `Cc1ccn(-c2cc(-c3ccc(OC(F)(F)F)c(C)c3)ccc2[C@@H](Oc2cc(N3CCC4(CC3)CN[C@H](C(=O)O)C4)nc(N)n2)C(F)(F)F)n1` [Example 1bq, (S)-8-(2-amino-6-((R)-2,2,2-trifluoro-1-(3′-methyl-3-(3-methyl-1H-pyrazol-1-yl)-4′-(trifluoromethoxy)-[1,1′-biphenyl]-4-yl)ethoxy)pyrimidin-4-yl)-2,8-diazaspiro[4.5]decane-3-carboxylic acid]: the IC50 under setting [1] was below 50 nM.

Take `Cc1ccn(-c2cc(-c3ccc(OC(C)C)c(Cl)c3)ccc2[C@@H](Oc2cc(N3CCC4(CC3)CN[C@H](C(=O)O)C4)nc(N)n2)C(F)(F)F)n1` [Example 1bv, (S)-8-(2-amino-6-((R)-1-(3′-chloro-4′-isopropoxy-3-(3-methyl-1H-pyrazol-1-yl)-[1,1′-biphenyl]-4-yl)-2,2,2-trifluoroethoxy)pyrimidin-4-yl)-2,8-diazaspiro[4.5]decane-3-carboxylic acid]: the concentration for half-maximal inhibition (IC50) under setting [1] was below 50 nM.

`Cc1ccn(-c2cc(-c3ccc4ccccc4c3)ccc2[C@@H](Oc2cc(N3CCC4(CC3)CN[C@H](C(=O)O)C4)nc(N)n2)C(F)(F)F)n1` [Example 1bw, (S)-8-(2-amino-6-((R)-2,2,2-trifluoro-1-(2-(3-methyl-1H-pyrazol-1-yl)-4-(naphthalen-2-yl)phenyl)ethoxy)pyrimidin-4-yl)-2,8-diazaspiro[4.5]decane-3-carboxylic acid]: the half-inhibitory concentration (IC50) under setting [1] is 50 to 300 nM.

In the case of `Cc1ccn(-c2cc(-c3ccc(OCc4ccccc4)c(F)c3)ccc2[C@@H](Oc2cc(N3CCC4(CC3)CN[C@H](C(=O)O)C4)nc(N)n2)C(F)(F)F)n1` [Example 1bx, (S)-8-(2-amino-6-((R)-1-(4′-(benzyloxy)-3′-fluoro-3-(3-methyl-1H-pyrazol-1-yl)-[1,1′-biphenyl]-4-yl)-2,2,2-trifluoroethoxy)pyrimidin-4-yl)-2,8-diazaspiro[4.5]decane-3-carboxylic acid], the half-inhibitory concentration (IC50) under setting [1] is below 50 nM.

For the compound `Cc1ccn(-c2cc(-c3ccc(OC(C)C)c(C)c3)ccc2[C@@H](Oc2cc(N3CCC4(CC3)CN[C@H](C(=O)O)C4)nc(N)n2)C(F)(F)F)n1` [Example 1by, (S)-8-(2-amino-6-((R)-2,2,2-trifluoro-1-(4′-isopropoxy-3′-methyl-3-(3-methyl-1H-pyrazol-1-yl)-[1,1′-biphenyl]-4-yl)ethoxy)pyrimidin-4-yl)-2,8-diazaspiro[4.5]decane-3-carboxylic acid], the IC50 under setting [1] was below 50 nM.

On to `CCCOc1ccc(-c2ccc([C@@H](Oc3cc(N4CCC5(CC4)CN[C@H](C(=O)O)C5)nc(N)n3)C(F)(F)F)c(-n3ccc(C)n3)c2)cc1F` [Example 1bz, (S)-8-(2-amino-6-((R)-2,2,2-trifluoro-1-(3′-fluoro-3-(3-methyl-1H-pyrazol-1-yl)-4′-propoxy-[1,1′-biphenyl]-4-yl)ethoxy)pyrimidin-4-yl)-2,8-diazaspiro[4.5]decane-3-carboxylic acid], for which the IC50 under setting [1] was below 50 nM.

Turning to `CCCCOc1ccc(-c2ccc([C@@H](Oc3cc(N4CCC5(CC4)CN[C@H](C(=O)O)C5)nc(N)n3)C(F)(F)F)c(-n3ccc(C)n3)c2)cc1F` [Example 1ca, (S)-8-(2-amino-6-((R)-1-(4′-butoxy-3′-fluoro-3-(3-methyl-1H-pyrazol-1-yl)-[1,1′-biphenyl]-4-yl)-2,2,2-trifluoroethoxy)pyrimidin-4-yl)-2,8-diazaspiro[4.5]decane-3-carboxylic acid], the 50% inhibitory concentration (IC50) under setting [1] was below 50 nM.

The record behind these values is patent US11759462B2, “Spirocyclic compounds as tryptophan hydroxylase inhibitors” (priority 2013, dated 2023).
